Values joined by “and” are separate entries in the source; they are usually repeats but may differ in a detail not shown here. Equal entries are not always repeated.
What was measured:
[1] = iontophoresis, rabbit eyes; cited from earlier work
[2] = INT; cited from earlier work
[3] = tested on: experimentally induced keratitus; conditions: experimentally induced keratitus in the rabbit eye; cited from earlier work
[4] = Release of gentamicin into the rabbit eye using hydrogel-probe iontophoresis (Example 5)
Experimental: Thirty six healthy rabbits (age 2-3 months, weight 2000 grams) were used. The study conformed with the ARVO Resolution of the Use of Animals in Research. The animals were anesthetized with intramuscular injections of ketamin HCl […] (Park Davis, Morris Plains, N.J.) and xylazine […] (Mobay, Shawnee, Kans.). Iontophoresis was carried out as follows: the distal end of the hydrogel-probe placed in a device as shown in FIG. 2 (diameter of 3 mm and 2 mm thick) was gently applied to the cornea of the rabbit while the anode of the iontophoretic system is inserted into the other end of the device and the cathode is attached to the ear of the animal.
A single concentration of 10 mg/ml gentamicin in the hydrogel-probe (dd) was studied, using two time periods of iontophoresis: long periods (60 seconds) and short periods (10 seconds). Six groups of rabbits, 6 animals per group, were treated with one of the treatments described in the following Table 1.
In group 3, one drop of topical gentamicin (14 mg/ml) was instilled into the eye every 5 minutes for 1 hour. In groups 4 and 5, mock iontophoresis was performed by placing a device containing 10 mg/ml of gentamicin on the cornea for 60 and 10 seconds without switching on the electric current. In group 6 iontophoresis was applied for 2 minutes with the dd containing NaCl 0.9% (instead of gentamicin).
Ten minutes after completion of the iontophoresis, or the control drug delivery technique in each animal, the surface of the eye was washed with 5 ml of NaCl 0.9%. The animals were sacrificed after 15 minutes by injecting an overdose of sodium pentobarbital. The entire cornea was excised with corneal scissors and rinsed again with 5 ml of NaCl 0.9%. The cornea was weighed, minced with a blade and placed into microcentrifuge tubes. To each tube, 0.5 ml 0.01 M phosphate buffered saline (pH 7.2) was added. The tubes were incubated for 18 hours in a water bath heated to 37° C., shaking at 100 oscillations/min. Thereafter the tubes were centrifuged for 10 min. at 2000 rpm. From each tube 125 microliter of the supernatant were assayed for gentamicin concentration using Abbot TDx. The concentration of gentamicin in the cornea was calculated as described before^(5). Gentamicin concentrations are expressed in micrograms per gram of tissue or per milliliter of buffer. 3 way ANOVA test was used for statistical evaluation.

[5] = Effect of current applied and duration of iontophoresis on drug cornea concentration (Experiment 6); type: in vivo, Albino rabbits; design: Gentimicin concentration in the cornea, Average: unit not given here
Excerpt: The purpose of this experiment was to determine the effect of the current applied and duration on the drug cornea concentration.

[6] = monkey eye, cited from earlier work
[7] = INT via the cornea, aphakic rabbit eye; cited from earlier work
[8] = INT, drug incorporated in soft agar gel; cited from earlier work
[9] = Group 2: hydrogel probe 10 mg/ml gentamicin, 0.5 mA, 10 sec iontophoresis
[10] = Group 4: hydrogel probe 10 mg/ml gentamicin, 0.0 mA, 60 sec (mock iontophoresis)

In the case of `Cc1nnc(SCC2=C(C(=O)O)N3C(=O)[C@@H](NC(=O)Cn4cnnn4)[C@H]3SC2)s1` [cefazoline], the “concentrations in the vitreous” value [1] is listed as “high concentrations”.

For `CC(=O)N1CCN(c2ccc(OCC3COC(Cn4ccnc4)(c4ccc(Cl)cc4Cl)O3)cc2)CC1` (stereo not shown) [ketaconazole], the “penetration into the animals' anterior chamber” value [2] is listed as “increased the penetration”.

For `CC1(C)S[C@@H]2[C@H](NC(=O)[C@H](C(=O)O)c3ccsc3)C(=O)N2[C@H]1C(=O)O` [ticarcillin], the “concentrations in the vitreous” value [1] is given as “high concentrations”.

In the case of `NC[C@H]1O[C@H](O[C@H]2[C@H](O)[C@@H](O[C@H]3O[C@H](CO)[C@@H](O)[C@H](N)[C@H]3O)[C@H](N)C[C@@H]2N)[C@H](N)C[C@@H]1O` [tobramycin], the “efficacy of INT versus topical administration” value [3] is given as “more effective than topical administration”.

For gentamicin, the “Gentamicin concentration in cornea, Average” value ([4]; Group 1: hydrogel probe 10 mg/ml gentamicin, 0.5 mA, 60 sec iontophoresis) was 33.1 ± 9.3 µg/g, the “Gentamicin concentration in cornea, Average” value [4, 9] was 6.5 ± 0.8 µg/g and the “Gentamicin concentration in cornea, single eyes (Eye No. 1-6)” value [4, 9] was 6.27 µg/g and 6.53 µg/g and 4.92 µg/g and 6.70 µg/g and 7.05 µg/g and 7.52 µg/g. For the same compound, the “Gentamicin concentration in cornea, Average” value ([4]; Group 3: eye drops, one drop every 5 minutes for 1 hour, no current) was 2.1 ± 1.0 µg/g, the “Gentamicin concentration in cornea, Average” value [4, 10] was 2.6 ± 0.3 µg/g and the “Gentamicin concentration in cornea, single eyes (Eye No. 1-6)” value [4, 10] was 2.01 µg/g and 2.55 µg/g and 2.78 µg/g and 2.89 µg/g and 2.70 µg/g and 2.96 µg/g. The “Gentamicin concentration in cornea, Average” value ([4]; Group 5: hydrogel probe 10 mg/ml gentamicin, 0.0 mA, 10 sec (mock iontophoresis)) was 1.1 ± 0.4 µg/g, the “Gentimicin concentration in the cornea, Average” value (“Gentimicin concentration” for short) ([5]; Group 1: hydrogel probe 10 mg/ml, 0.0 mA, 60 sec) was 2.71 ± 2.0 and the “Gentimicin concentration” value ([5]; Group 2: hydrogel probe 10 mg/ml, 0.1 mA, 60 sec) was 4.5 ± 3.5. The “Gentimicin concentration” value ([5]; Group 3: hydrogel probe 10 mg/ml, 0.3 mA, 60 sec) was 42.2 ± 27.1, the “Gentimicin concentration” value ([5]; Group 4: hydrogel probe 10 mg/ml, 0.6 mA, 60 sec) was 88.6 ± 38.6 and the “Gentimicin concentration” value ([5]; Group 5: hydrogel probe 10 mg/ml, 0.0 mA, 10 sec) was 0.0. For the same compound, the “Gentimicin concentration” value ([5]; Group 6: hydrogel probe 10 mg/ml, 0.1 mA, 10 sec) was 4.0 ± 2.4, the “Gentimicin concentration” value ([5]; Group 7: hydrogel probe 10 mg/ml, 0.3 mA, 10 sec) was 10.2 ± 4.1 and the “Gentimicin concentration” value ([5]; Group 8: hydrogel probe 10 mg/ml, 0.6 mA, 10 sec) was 22.0 ± 7.8. The “Gentimicin concentration” value ([5]; Group 9: subconj. inj., 0.3% w/v, no current) was 30 ± 18.6, the “gentamicin concentrations in the intraocular fluid” value ([5]; Groups 3 and 4 (0.3 and 0.6 mA, 60 sec)) was “High gentamicin concentrations” and the “increase in drug concentration as compared with SC injections” value ([5]; current of 0.6 mAmp) was 3 times. The “increase in drug concentration over a non-current application (diffusion only)” value ([5]; current of 0.6 mAmp) was “about 30 times”, the “concentrations of gentamicin in the vitreous” value ([6]; transscleral INT using solutions, for several hours) was “bactericidal concentrations” and the “damage to the retina, repeated Electro Retino Graphia (ERG) tests” value ([6]; transscleral INT) was “did not show damage to the retina”. The “concentrations in the vitreous” value [1] was “high concentrations”, the “levels of gentamicin in the vitreous” value [7] was “high levels” and the “concentrations transferred into the rabbit cornea” value [8] was “marked concentrations”.

Reference: patent publication US6442423B1, “Device for iontophoretic administration of drugs” (Hadasit Medical Research Services & Development Limited, priority 1998, dated 2002)
